From patent US9420787B2, “Method for controlling noxious organisms” (SUMITOMO CHEMICAL COMPANY, LIMITED, priority 2012, dated 2016)

What was measured:
Format in all cases: in vivo
Ivyleaf morningglory [1] = assay: Herbicidal effect in pots sown with ethaboxam-treated corn seeds, PPO inhibitor sprayed on soil (Example 2); conditions: corn pot, day 7 after sowing, scale 0 to 100
Method: In a plastic cup of 100 mm in inside diameter and 40 mm in height, 13.4 mg of an ethaboxam suspension (a suspension containing 34. 6% of ethaboxam, manufactured by Valent USA Corp.) and 40 corn seeds were placed. The plastic cup was shaken by the hand so that the ethaboxam suspension was attached to the corn seeds. The weight of 40 corn seeds was 15.5 g, and the amount of ethaboxam by the above treatment was calculated as 30 g per 100 kg of the corn seeds. In the same manner, 138.7 mg of the ethaboxam suspension was attached to 40 corn seeds. The weight of 40 corn seeds was 16.0 g, and the amount of ethaboxam by the above treatment was calculated as 300 g per 100 kg of the corn seeds. A soil was packed in a plastic pot of 120 mm in inside diameter×80 mm in height. The above treated corn seeds were sown in this pot at a rate of two seeds per pot, and the seeds of ivyleaf morningglory were sown at a rate of four seeds per pot. On the day of sowing the corn seeds and after sowing the corn seeds, an aqueous diluted solution (113 mg of active ingredient/L or 225 mg of active ingredient/L) of a flumioxazin granular wettable powder (a granular wettable powder containing 51% of flumioxazin, trade name: Valor SX, manufactured by Valent USA), an aqueous diluted solution (226 mg of active ingredient/L or 1130 mg of active ingredient/L) of a sulfentrazone granular wettable powder (a granular wettable powder containing 75% of sulfentrazone, trade name: Cover, manufactured by DuPont), or an aqueous diluted solution (113 mg/L or 226 mg/L) of saflufenacil was uniformly sprayed on the soil surface with a sprayer so as to apply the amount described in Tables 4 to 6. […] On day 7 after sowing the seeds of corn and ivyleaf morningglory, the herbicidal effect was investigated.

Ivyleaf morningglory [2] = assay: Herbicidal effect in pots sown with ethaboxam-treated cotton seeds, PPO inhibitor sprayed on soil (Example 3); conditions: cotton pot, day 7 after sowing, scale 0 to 100
Method: In a plastic cup of 100 mm in inside diameter and 40 mm in height, 5.7 mg of an ethaboxam suspension (a suspension containing 34.6% of ethaboxam, manufactured by Valent USA Corp.) and 40 cotton seeds were placed. The plastic cup was shaken by the hand so that the ethaboxam suspension was attached to the cotton seeds. The weight of 40 cotton seeds was 6.6 g, and the amount of ethaboxam by the above treatment was calculated as 30 g per 100 kg of the cotton seeds. In the same manner, 56.7 mg of the ethaboxam suspension was attached to 40 cotton seeds. The weight of 40 cotton seeds was 6.55 g, and the amount of ethaboxam by the above treatment was calculated as 300 g per 100 kg of the cotton seeds. A soil was packed in a plastic pot of 120 mm in inside diameter×80 mm in height. The above cotton seeds were sown in this pot at a rate of two seeds per pot, and the seeds of ivyleaf morningglory were sown at a rate of four seeds per pot. On the day of sowing the cottonseeds and after sowing the cotton seeds, an aqueous diluted solution (113 mg of active ingredient/L or 225 mg of active ingredient/L) of a flumioxazin granular wettable powder (a granular wettable powder containing 51% of flumioxazin, trade name: Valor SX, manufactured by Valent USA), an aqueous diluted solution (226 mg of active ingredient/L or 1130 mg of active ingredient/L) of a sulfentrazone granular wettable powder (a granular wettable powder containing 75% of sulfentrazone, trade name: Cover, manufactured by DuPont), or an aqueous diluted solution (113 mg/L or 226 mg/L) of saflufenacil was uniformly sprayed on the soil surface with a sprayer so as to apply the amount described in Tables 7 to 9. […] On day 7 after sowing the seeds of cotton and ivyleaf morningglory, the herbicidal effect was investigated.

Ivyleaf morningglory [3] = assay: Herbicidal effect in pots sown with ethaboxam-treated soybean seeds, PPO inhibitor sprayed on soil (Example 1); conditions: soybean pot, day 7 after sowing, scale 0 to 100
Method: In a plastic cup of 100 mm in inside diameter and 40 mm in height, 10.5 mg of an ethaboxam suspension (a suspension containing 34.6% of ethaboxam, manufactured by Valent USA Corp.) and 40 soybean seeds were placed. The plastic cup was shaken by the hand so that the ethaboxam suspension was attached to the soybean seeds. The weight of 40 soybean seeds was 12.1 g, and the amount of ethaboxam by the above treatment was calculated as 30 g per 100 kg of the soybean seeds. In the same manner, 104.9 mg of the ethaboxam suspension was attached to 40 soybean seeds. The weight of 40 soybean seeds was 12.1 g, and the amount of ethaboxam by the above treatment was calculated as 300 g per 100 kg of the soybean seeds. A soil was packed in a plastic pot of 120 mm in inside diameter×80 mm in height. The above treated soybean seeds were sown in this pot at a rate of two seeds per pot, and the seeds of ivyleaf morningglory were sown at a rate of four seeds per pot. On the day of sowing the soybean seeds and after sowing the soybean seeds, an aqueous diluted solution (113 mg of active ingredient/L or 225 mg of active ingredient/L) of a flumioxazin granular wettable powder (a granular wettable powder containing 51% of flumioxazin, trade name: Valor SX, manufactured by Valent USA), an aqueous diluted solution (226 mg of active ingredient/L or 1130 mg of active ingredient/L) of a sulfentrazone granular wettable powder (a granular wettable powder containing 75% of sulfentrazone, trade name: Cover, manufactured by DuPont), or an aqueous diluted solution (113 mg/L or 226 mg/L) of saflufenacil was uniformly sprayed on the soil surface with a sprayer so as to apply the amount described in Tables 1 to 3. […] On day 7 after sowing the seeds of soybean and ivyleaf morningglory, the herbicidal effect was investigated.

[4] = no ethaboxam, flumioxazin 100 g/ha
[5] = no ethaboxam, sulfentrazone 500 g/ha
[6] = no ethaboxam, saflufenacil 100 g/ha
[7] = ethaboxam 30 g/100 kg of seeds, no PPO inhibitor
[8] = ethaboxam 300 g/100 kg of seeds, no PPO inhibitor

C#CCN1C(=O)COc2cc(F)c(N3C(=O)C4=C(CCCC4)C3=O)cc21 [flumioxazin]
Herbicidal effect Ivyleaf morningglory (Ivyleaf morningglory [1]; [4]): 30 | Herbicidal effect Ivyleaf morningglory (Ivyleaf morningglory [2]; [4]): 30

Cc1nn(-c2cc(NS(C)(=O)=O)c(Cl)cc2Cl)c(=O)n1C(F)F [sulfentrazone]
Herbicidal effect Ivyleaf morningglory (Ivyleaf morningglory [1]; no ethaboxam, sulfentrazone 100 g/ha): 30 | Herbicidal effect Ivyleaf morningglory (Ivyleaf morningglory [1]; [5]): 70 | Herbicidal effect Ivyleaf morningglory (Ivyleaf morningglory [2]; [5]): 40

CC(C)N(C)S(=O)(=O)NC(=O)c1cc(-n2c(=O)cc(C(F)(F)F)n(C)c2=O)c(F)cc1Cl [saflufenacil]
Herbicidal effect Ivyleaf morningglory (Ivyleaf morningglory [3]; [6]): 50 | Herbicidal effect Ivyleaf morningglory (Ivyleaf morningglory [2]; no ethaboxam, saflufenacil 50 g/ha): 20 | Herbicidal effect Ivyleaf morningglory (Ivyleaf morningglory [2]; [6]): 70

CCNc1nc(CC)c(C(=O)NC(C#N)c2cccs2)s1 (centres unmarked) [ethaboxam]
Herbicidal effect Ivyleaf morningglory (Ivyleaf morningglory [3]; [7]): 0 | Herbicidal effect Ivyleaf morningglory (Ivyleaf morningglory [3]; [8]): 0 | Herbicidal effect Ivyleaf morningglory (Ivyleaf morningglory [1]; [7]): 0 | Herbicidal effect Ivyleaf morningglory (Ivyleaf morningglory [1]; [8]): 0 | Herbicidal effect Ivyleaf morningglory (Ivyleaf morningglory [2]; [7]): 0 | Herbicidal effect Ivyleaf morningglory (Ivyleaf morningglory [2]; [8]): 0
